For 14 compounds, IC50 results are on record in US20250250287A1, “HETEROCYCLIC COMPOUNDS, COMPOSITIONS THEREOF, AND METHODS OF TREATMENT THEREWITH” (BeiGene Switzerland GmbH, priority 2022, published 2025).

The first assay has as its system pERK1/2(THR202/TYR204) level in AsPC-1 cell line (KRAS G12D). In words: KRAS G12D pERK assay (HTRF) in AsPC-1 cell line. It counts as cell-based. Conditions: Homo sapiens, ASPC1; AsPC-1 cells, 2 h compound treatment. As to the method:
AsPC-1 cell line was used in this study. Cells were maintained in RPMI-1640 supplemented with 10% fetal bovine serum (Thermo Fisher), 50 units/mL penicillin and streptomycin (Thermo Fisher) and kept at 37° C. in a humidified atmosphere of 5% CO2 in air. Cells were reinstated from frozen stocks that were laid down within 30 passages from the original cells purchased. 30000 cells per well were seeded into a 96-well plate and incubated overnight. Cells were treated with a 10-point dilution series. The final compound concentration is from 0 to 10 μM. After 2 h compound treatment, cells were lysed, and the pERK1/2(THR202/TYR204) level in the cell lysates was detected by HTRF kit (Cisbio). In brief, a total of 16 μL of cell lysate from each well of a 96-well plate was transferred to a 384-well white assay plate. Lysate from each well was incubated with 2 μL of Eu3+-cryptate (donor) labeled anti-phospho-ERK1/2 and 2 μL of D2 (acceptor) labeled anti-phospho-ERK1/2 antibodies (Cisbio) overnight in dark at room temperature. When donor and acceptor are in close proximity, excitation of the donor with laser triggers a Fluorescence Resonance Energy Transfer (FRET) towards the acceptor, which in turn fluoresces at 655 nm wavelength. FRET signals were measured using a PHERAstar FSX reader (BMG Labtech). […]
(In TR-FRET formats the signal depends on donor and acceptor labels being close together.)
In the case of `C#Cc1c(F)ccc2cc(O)cc(-c3nc4c5c(nc(OC[C@@]67CCCN6C[C@H](F)C7)nc5c3F)N3CCCC[C@H]3CO4)c12` [Example 16, 5-ethynyl-6-fluoro-4-((S)-1-fluoro-11-(((2R,7aS)-2-fluorotetrahydro-1H-pyrrolizin-7a(5H)-yl)methoxy)-5,5a,6,7,8,9-hexahydro-4-oxa-3,9a,10,12-tetraazabenzo[4,5]cyclohepta[1,2,3-d]naphthalen-2-yl)naphthalen-2-ol], the IC50 was 0.0063 µM.

The next assay concerns pERK1/2(THR202/TYR204) level in SW620 cell line (KRAS G12V). In words: KRAS G12V pERK assay (HTRF) in SW620 cell line. In kind it is cell-based. Conditions: Homo sapiens, SW-620, 2 h, SW620 cells, 2 hrs compound treatment. Here is the method: SW620 cell line was used in this study. Cells were maintained in RPMI 1640 supplemented with 10% fetal bovine serum (Thermo Fisher), 50 units/mL penicillin and streptomycin (Thermo Fisher) and kept at 37° C. in a humidified atmosphere of 5% CO2 in air. Cells were reinstated from frozen stocks that were laid down within 30 passages from the original cells purchased. 40000 cells per well were seeded into a 96-well plate and incubated overnight. Cells were treated with a 10-point dilution series. The final compound concentration is from 0 to 10 μM. After 2 hrs compound treatment, cells were lysed, and the pERK1/2(THR202/TYR204) level in the cell lysates was detected by HTRF kit (Cisbio). In brief, a total of 16 μL of cell lysate from each well of a 96-well plate was transferred to a 384-well white assay plate. Lysate from each well was incubated with 2 μL of Eu3+-cryptate (donor) labeled anti-phospho-ERK1/2 and 2 μL of D2 (acceptor) labeled anti-phospho-ERK1/2 antibodies (Cisbio) overnight in dark at room temperature. When donor and acceptor are in close proximity, excitation of the donor with laser triggers a Fluorescence Resonance Energy Transfer (FRET) towards the acceptor, which in turn fluoresces at 655 nm wavelength. FRET signals were measured using a PHERAstar FSX reader (BMG Labtech). IC50 determination was performed by fitting the curve of percent inhibition versus the log of the inhibitor concentration using Dotmatics.
In the case of `C#Cc1c(F)ccc2cc(O)cc(-c3nc4c5c(nc(OC[C@@]67CCCN6C[C@H](F)C7)nc5c3F)N3C[C@H](F)C[C@H]3CO4)c12` [Example 19, 4-((2R,11aS)-2,7-difluoro-5-(((2R,7aS)-2-fluorotetrahydro-1H-pyrrolizin-7a(5H)-yl)methoxy)-2,3,11,11a-tetrahydro-1H-10-oxa-3a,4,6,9-tetraazanaphtho[1,8-ef]azulen-8-yl)-5-ethynyl-6-fluoronaphthalen-2-ol], the half-inhibitory concentration (IC50) came out at 0.112 µM. The compound `C#Cc1c(F)ccc2cc(O)cc(-c3nc4c5c(nc(OC[C@@]67CCCN6C[C@H](F)C7)nc5c3F)N3CCCCCC3CO4)c12` (stereo partly drawn) [Example 26, 5-ethynyl-6-fluoro-4-(1-fluoro-12-(((2R,7aS)-2-fluorotetrahydro-1H-pyrrolizin-7a(5H)-yl)methoxy)-5a,6,7,8,9,10-hexahydro-5H-4-oxa-3,10a,11,13-tetraazanaphtho[1,8-ab]heptalen-2-yl)naphthalen-2-ol] came in with a half-inhibitory concentration (IC50) of 0.0093 µM. Still for that read-out and setting: for `C[C@@H]1C[C@H]2COc3c(Cl)c(-c4ccc(F)c5sc(N)c(C#N)c45)c(F)c4nc(OC[C@@]56CCCN5C[C@H](F)C6)nc(c34)N2C1` [Example 28, 2-amino-4-((2R,12aS)-10-chloro-8-fluoro-6-(((2R,7aS)-2-fluorotetrahydro-1H-pyrrolizin-7a(5H)-yl)methoxy)-2-methyl-2,3,12,12a-tetrahydro-1H-pyrrolo[2′,1′:3,4][1,4]oxazepino[5,6,7-de]quinazolin-9-yl)-7-fluorobenzo[b]thiophene-3-carbonitrile] the value was 0.074 µM; for `C#Cc1c(F)ccc2cc(O)cc(-c3nc4c5c(nc(OC[C@@]67CCCN6C[C@H](F)C7)nc5c3F)N3CCCC[C@H]3CO4)c12` [Example 16, 5-ethynyl-6-fluoro-4-((S)-1-fluoro-11-(((2R,7aS)-2-fluorotetrahydro-1H-pyrrolizin-7a(5H)-yl)methoxy)-5,5a,6,7,8,9-hexahydro-4-oxa-3,9a,10,12-tetraazabenzo[4,5]cyclohepta[1,2,3-d]naphthalen-2-yl)naphthalen-2-ol], 0.0059 µM; for `Nc1cc(Cl)c(C(F)(F)F)c(-c2nc3c4c(nc(OC[C@@]56CCCN5C[C@H](F)C6)nc4c2F)N2CCC[C@H]2CO3)c1` [Example 9, 3-chloro-5-((S)-7-fluoro-5-(((2R,7aS)-2-fluorotetrahydro-1H-pyrrolizin-7a(5H)-yl)methoxy)-2,3,11,11a-tetrahydro-1H-10-oxa-3a,4,6,9-tetraazanaphtho[1,8-e]azulen-8-yl)-4-(trifluoromethyl)aniline], 0.89 µM. On the same count and under the same terms, for `C#Cc1c(F)ccc2cc(O)cc(-c3nc4c5c(nc(OC[C@@]67CCCN6C[C@H](F)C7)nc5c3F)N3CCC[C@H]3CO4)c12` [Example 10, 5-ethynyl-6-fluoro-4-((S)-7-fluoro-5-(((2R,7aS)-2-fluorotetrahydro-1H-pyrrolizin-7a(5H)-yl)methoxy)-2,3,11,11a-tetrahydro-1H-10-oxa-3a,4,6,9-tetraazanaphtho[1,8-ef]azulen-8-yl)naphthalen-2-ol] the value was 0.043 µM; for `Nc1cc(Cl)c(C(F)(F)F)c(-c2nc3c4c(nc(OC[C@@]56CCCN5C[C@H](F)C6)nc4c2F)N2CC[C@H]2CCO3)c1` [Example 22, 3-chloro-5-((S)-6-fluoro-4-(((2R,7aS)-2-fluorotetrahydro-1H-pyrrolizin-7a(5H)-yl)methoxy)-1,10,11,11a-tetrahydro-2H-9-oxa-2a,3,5,8-tetraazacyclobuta[4,5]cycloocta[1,2,3-de]naphthalen-7-yl)-4-(trifluoromethyl)aniline], 0.466 µM. `Nc1cc(Cl)c(C(F)(F)F)c(-c2nc3c4c(nc(OC[C@@]56CCCN5C[C@H](F)C6)nc4c2F)N2CCC[C@@H]2CO3)c1` [Example 13, 3-chloro-5-((R)-7-fluoro-5-(((2R,7aS)-2-fluorotetrahydro-1H-pyrrolizin-7a(5H)-yl)methoxy)-2,3,11,11a-tetrahydro-1H-10-oxa-3a,4,6,9-tetraazanaphtho[1,8-ef]azulen-8-yl)-4-(trifluoromethyl)aniline] gave a half-maximal inhibitory concentration (IC50) of 0.648 µM. Still for that read-out and setting: for `N#Cc1c(N)sc2c(F)ccc(-c3c(Cl)c4c5c(nc(OC[C@@]67CCCN6C[C@H](F)C7)nc5c3F)N3CCC[C@@H]3CCO4)c12` [Example 7, 2-amino-4-((13aR)-10-chloro-8-fluoro-6-(((2R,7aS)-2-fluorotetrahydro-1H-pyrrolizin-7a (5H)-yl)methoxy)-1,2,3,12,13,13a-hexahydropyrrolo[1′,2′:5,6][1,5]oxazocino[4,3,2-de]quinazolin-9-yl)-7-fluorobenzo[b]thiophene-3-carbonitrile] the value was 0.049 µM; for `Nc1cc(Cl)c(C(F)(F)F)c(-c2nc3c4c(nc(OC[C@@]56CCCN5C[C@H](F)C6)nc4c2F)N2CCC(F)C2CO3)c1` (stereo partly drawn) [Example 17, 3-chloro-5-(1,7-difluoro-5-(((2R,7aS)-2-fluorotetrahydro-1H-pyrrolizin-7a(5H)-yl)methoxy)-2,3,11,11a-tetrahydro-1H-10-oxa-3a,4,6,9-tetraazanaphtho[1,8-ef]azulen-8-yl)-4-(trifluoromethyl)aniline], 0.509 µM; for `Nc1cc(Cl)c(C(F)(F)F)c(-c2nc3c4c(nc(OC[C@@]56CCCN5C[C@H](F)C6)nc4c2F)N2CCCC[C@H]2CO3)c1` [Example 15, 3-chloro-5-((S)-1-fluoro-11-(((2R,7aS)-2-fluorotetrahydro-1H-pyrrolizin-7a(5H)-yl)methoxy)-5,5a,6,7,8,9-hexahydro-4-oxa-3,9a,10,12-tetraazabenzo[4,5]cyclohepta[1,2,3-de]naphthalen-2-yl)-4-(trifluoromethyl)aniline], 0.187 µM.

Still in this assay, the particulars now being: SW620 cells, 2 hrs compound treatment.
Take `C#Cc1c(F)ccc2cc(O)cc(-c3nc4c5c(nc(OCC67CCCN6CC(F)C7)nc5c3F)N3CCC3CO4)c12` (single isomer, unassigned) [Example 20]: 0.04 µM corresponded to half-maximal inhibition (IC50). This counts as double-digit nanomolar.

Compound “3-chloro-5-(1-fluoro-12-(((2R,7aS)-2-fluorotetrahydro-1H-pyrrolizin-7a(5H)-yl)methoxy)-6,6a,7,8,9,10-hexahydro-5H-4-oxa-3,10a,11,13-tetraazabenzo[4,5]cycloocta[1,2,3-de]naphthalen-2-yl)-4-(trifluoromethyl)aniline [Example 8]” showed an IC50 of 0.29 µM. The compound `C#Cc1c(F)ccc2cc(O)cc(-c3nc4c5c(nc(OCC67CCCN6CC(F)C7)nc5c3F)N3CCC3CO4)c12` (single isomer, unassigned) [Example 18] had an IC50 of 0.326 µM.

The IC50 is the midpoint of a concentration-inhibition curve. A higher IC50 goes with a need for much substance.
